Measured values reported in patent publication US20240239792A1, “MODULATORS OF BCL-2 OR BCL-2/BCL-XL AND USES THEREOF” (APPICINE THERAPEUTICS (HK) LIMITED, priority 2021, published 2024).

Tests used:
[1] = test system: DOHH2 cells; experiment: CellTiter-Glo cell proliferation assay, DOHH2 cells; type: cell-based; conditions: Homo sapiens, DOHH-2, 72 hours
How it was run: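 GI50 derived from CellTiter-Glo luminescent viability signal. Cells grown in DMEM with 10% FBS received a compound dilution series for 72 h (37 °C, 5% CO2).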

[2] = target: T1, BCL-2 (Homo sapiens, UniProt P10415); experiment: HTRF BCL-2/BAK assay (Cisbio); type: binding; conditions: recombinant human Tag1-BCL-2 2 nM, Tag2-BAK 10 nM
T1 construct: purchased Cisbio 63ADK000CB01PEG
T1 sequence (P10415 whole entry): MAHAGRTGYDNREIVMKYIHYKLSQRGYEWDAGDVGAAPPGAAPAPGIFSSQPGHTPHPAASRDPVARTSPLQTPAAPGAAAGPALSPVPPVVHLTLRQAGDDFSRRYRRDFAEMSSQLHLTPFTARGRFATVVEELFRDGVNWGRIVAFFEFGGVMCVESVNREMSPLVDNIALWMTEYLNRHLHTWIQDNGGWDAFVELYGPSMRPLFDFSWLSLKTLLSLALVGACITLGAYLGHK
Protocol: (§1) Then the pre-mixed anti-Tag1-Eu^3+ and anti-tag2-XL665 were added to the plate and further incubated at room temperature for another 2 hours. The signals ([…]) were read on Envision 2104 instrument. The IC50 for each compound was derived from fitting the signal of 665/615 nM to the increasing compound concentration.
(§2) Using the above assays, the following compounds were tested.

[3] = target: T2, BCL-XL (Homo sapiens, UniProt Q07817); experiment: HTRF BCL-XL/BAK assay (Cisbio); type: binding; conditions: recombinant human Tag1-BCL-XL 2 nM, Tag2-BAK 5 nM
T2 construct: purchased Cisbio 63ADK000CB04PEG
T2 sequence (Q07817 whole entry): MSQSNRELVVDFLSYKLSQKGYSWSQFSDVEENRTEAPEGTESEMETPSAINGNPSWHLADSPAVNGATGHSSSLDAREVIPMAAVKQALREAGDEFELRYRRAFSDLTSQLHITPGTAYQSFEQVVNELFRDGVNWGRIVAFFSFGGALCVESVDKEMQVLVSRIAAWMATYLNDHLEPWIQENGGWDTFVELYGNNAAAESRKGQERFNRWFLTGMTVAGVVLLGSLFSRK
Protocol: as §1, §2

Structure (SMILES)	IC50 [2] [µM]	IC50 [3] [µM]	GI50 [1] [µM]
Cc1ccc(S(=O)(=O)N2CCCC(N3CCN(c4ccc(C(=O)NS(=O)(=O)c5ccc(NCC6CCOCC6)c([N+](=O)[O-])c5)c(Oc5cnc6[nH]ccc6c5)c4)CC3)c3ccccc32)cc1 (stereo not drawn) [Compound 76, 2-((1H-pyrrolo[2,3-b]pyridin-5-yl)oxy)-N-((3-nitro-4-(((tetrahydro-2H-pyran-4-yl)methyl)amino)phenyl)sulfonyl)-4-(4-(1-tosyl-2,3,4,5-tetrahydro-1H-benzo[b]azepin-5-yl)piperazin-1-yl)benzamide]	< 0.02	0.2 to 2	0.5 to 5
Cc1cccc2c1CCCCC2N1CCN(c2ccc(C(=O)NS(=O)(=O)c3ccc(NCC4CCOCC4)c([N+](=O)[O-])c3)c(Oc3cnc4[nH]ccc4c3)c2)CC1 (stereo not drawn) [Compound 20, 2-((1H-pyrrolo[2,3-b]pyridin-5-yl)oxy)-4-(4-(1-methyl-6,7,8,9-tetrahydro-5H-benzo[7]annulen-5-yl)piperazin-1-yl)-N-((3-nitro-4-(((tetrahydro-2H-pyran-4-yl)methyl)amino)phenyl)sulfonyl)benzamide]	< 0.02	0.2 to 2	0.05 to 0.5
CC(=O)N1CCN(CCNc2ccc(S(=O)(=O)NC(=O)c3ccc(N4CCN(C5CCCCc6c(Cl)cccc65)CC4)cc3Oc3cnc4[nH]ccc4c3)cc2[N+](=O)[O-])CC1 (stereo not drawn) [Compound 39, 2-((1H-pyrrolo[2,3-b]pyridin-5-yl)oxy)-N-((4-((2-(4-acetylpiperazin-1-yl)ethyl)amino)-3-nitrophenyl)sulfonyl)-4-(4-(1-chloro-6,7,8,9-tetrahydro-5H-benzo[7]annulen-5-yl)piperazin-1-yl)benzamide]	< 0.02	0.02 to 0.2	< 0.05
O=C(NS(=O)(=O)c1ccc(NCCN2CCC3(CC2)COC3)c([N+](=O)[O-])c1)c1ccc(N2CCN([C@@H]3CCCCc4c(Br)cc(F)cc43)CC2)cc1Oc1cnc2[nH]ccc2c1 [Compound 80, (R)-2-((1H-pyrrolo[2,3-b]pyridin-5-yl)oxy)-N-((4-((2-(2-oxa-7-azaspiro[3.5]nonan-7-yl)ethyl)amino)-3-nitrophenyl)sulfonyl)-4-(4-(1-bromo-3-fluoro-6,7,8,9-tetrahydro-5H-benzo[7]annulen-5-yl)piperazin-1-yl)benzamide]	< 0.02	0.02 to 0.2	0.5 to 5
O=C(NS(=O)(=O)c1ccc(NCC2CCOCC2)c([N+](=O)[O-])c1)c1ccc(N2CCN(C3CCCCc4c(Br)cccc43)CC2)cc1Oc1cnc2[nH]ccc2c1 (stereo not drawn) [Compound 18, 2-((1H-pyrrolo[2,3-b]pyridin-5-yl)oxy)-4-(4-(1-bromo-6,7,8,9-tetrahydro-5H-benzo[7]annulen-5-yl)piperazin-1-yl)-N-((3-nitro-4-(((tetrahydro-2H-pyran-4-yl)methyl)amino)phenyl)sulfonyl)benzamide]	< 0.02	0.02 to 0.2	< 0.05
O=C(NS(=O)(=O)c1ccc(NCC2CCOCC2)c([N+](=O)[O-])c1)c1ccc(N2CCN(C3CCCCc4c(-c5cccnc5)cccc43)CC2)cc1Oc1cnc2[nH]ccc2c1 (stereo not drawn) [Compound 49, 2-((1H-pyrrolo[2,3-b]pyridin-5-yl)oxy)-N-((3-nitro-4-(((tetrahydro-2H-pyran-4-yl)methyl)amino)phenyl)sulfonyl)-4-(4-(1-(pyridin-3-yl)-6,7,8,9-tetrahydro-5H-benzo[7]annulen-5-yl)piperazin-1-yl)benzamide]	< 0.02	0.2 to 2	0.5 to 5
O=C(NS(=O)(=O)c1ccc(NCC2CCOCC2)c([N+](=O)[O-])c1)c1ccc(N2CCN(C3CCCCc4ccc(F)cc43)CC2)cc1Oc1cnc2[nH]ccc2c1 (stereo not drawn) [Compound 37, 2-((1H-pyrrolo[2,3-b]pyridin-5-yl)oxy)-4-(4-(3-fluoro-6,7,8,9-tetrahydro-5H-benzo[7]annulen-5-yl)piperazin-1-yl)-N-((3-nitro-4-(((tetrahydro-2H-pyran-4-yl)methyl)amino)phenyl)sulfonyl)benzamide]	< 0.02	0.2 to 2	0.05 to 0.5
CN1CC2CC1CN2CCNc1ccc(S(=O)(=O)NC(=O)c2ccc(N3CCN(C4CCCCc5c(Cl)cccc54)CC3)cc2Oc2cnc3[nH]ccc3c2)cc1[N+](=O)[O-] (stereo not drawn) [Compound 43, 2-((1H-pyrrolo[2,3-b]pyridin-5-yl)oxy)-4-(4-(1-chloro-6,7,8,9-tetrahydro-5H-benzo[7]annulen-5-yl)piperazin-1-yl)-N-((4-((2-(5-methyl-2,5-diazabicyclo[2.2.1]heptan-2-yl)ethyl)amino)-3-nitrophenyl)sulfonyl)benzamide]	< 0.02	< 0.02	0.05 to 0.5
O=C(NS(=O)(=O)c1ccc(NCC2(O)CCN(C3COC3)CC2)c([N+](=O)[O-])c1)c1ccc(N2CCN([C@@H]3CCCCc4c(Cl)cc(F)cc43)CC2)cc1Oc1cnc2[nH]ccc2c1 [Compound 88, (R)-2-((1H-pyrrolo[2,3-b]pyridin-5-yl)oxy)-4-(4-(1-chloro-3-fluoro-6,7,8,9-tetrahydro-5H-benzo[7]annulen-5-yl)piperazin-1-yl)-N-((4-(((4-hydroxy-1-(oxetan-3-yl)piperidin-4-yl)methyl)amino)-3-nitrophenyl)sulfonyl)benzamide]	< 0.02	< 0.02	< 0.05
O=C(NS(=O)(=O)c1ccc(NCC2CCC3(CC2)COC3)c([N+](=O)[O-])c1)c1ccc(N2CCN(C3CCCCc4c(Cl)cccc43)CC2)cc1Oc1cnc2[nH]ccc2c1 (stereo not drawn) [Compound 38, 2-((1H-pyrrolo[2,3-b]pyridin-5-yl)oxy)-N-((4-(((2-oxaspiro[3.5]nonan-7-yl)methyl)amino)-3-nitrophenyl)sulfonyl)-4-(4-(1-chloro-6,7,8,9-tetrahydro-5H-benzo[7]annulen-5-yl)piperazin-1-yl)benzamide]	< 0.02	0.2 to 2	< 0.05
CC(CO)c1cccc2c1CCCCC2N1CCN(c2ccc(C(=O)NS(=O)(=O)c3ccc(NCC4CCOCC4)c([N+](=O)[O-])c3)c(Oc3cnc4[nH]ccc4c3)c2)CC1 (stereo not drawn) [Compound 61, 2-((1H-pyrrolo[2,3-b]pyridin-5-yl)oxy)-4-(4-(1-(1-hydroxypropan-2-yl)-6,7,8,9-tetrahydro-5H-benzo[7]annulen-5-yl)piperazin-1-yl)-N-((3-nitro-4-(((tetrahydro-2H-pyran-4-yl)methyl)amino)phenyl)sulfonyl)benzamide]	< 0.02	0.2 to 2	0.5 to 5

Further lines, with some results ahead:

IC50 [2] [µM]	IC50 [3] [µM]	Structure (SMILES)	GI50 [1] [µM]
< 0.02	< 0.02	CCN1CCC2(CC1)CC(CNc1ccc(S(=O)(=O)NC(=O)c3ccc(N4CCN([C@@H]5CCCCc6c(Cl)cccc65)CC4)cc3Oc3cnc4[nH]ccc4c3)cc1[N+](=O)[O-])C2 [Compound 131, (R)-2-((1H-pyrrolo[2,3-b]pyridin-5-yl)oxy)-4-(4-(1-chloro-6,7,8,9-tetrahydro-5H-benzo[7]annulen-5-yl)piperazin-1-yl)-N-((4-(((7-ethyl-7-azaspiro[3.5]nonan-2-yl)methyl)amino)-3-nitrophenyl)sulfonyl)benzamide]	< 0.05
< 0.02	0.02 to 0.2	CC(C)C(=O)N1CCC2(CC1)CC(CNc1ccc(S(=O)(=O)NC(=O)c3ccc(N4CCN([C@@H]5CCCCc6c(Cl)cccc65)CC4)cc3Oc3cnc4[nH]ccc4c3)cc1[N+](=O)[O-])C2 [Compound 124, (R)-2-((1H-pyrrolo[2,3-b]pyridin-5-yl)oxy)-4-(4-(1-chloro-6,7,8,9-tetrahydro-5H-benzo[7]annulen-5-yl)piperazin-1-yl)-N-((4-(((7-isobutyryl-7-azaspiro[3.5]nonan-2-yl)methyl)amino)-3-nitrophenyl)sulfonyl)benzamide]	< 0.05
< 0.02	< 0.02	O=C(NS(=O)(=O)c1ccc(NCC2CC3(CCN(CC4CC4)CC3)C2)c([N+](=O)[O-])c1)c1ccc(N2CCN([C@@H]3CCCCc4c(Cl)cccc43)CC2)cc1Oc1cnc2[nH]ccc2c1 [Compound 129, (R)-2-((1H-pyrrolo[2,3-b]pyridin-5-yl)oxy)-4-(4-(1-chloro-6,7,8,9-tetrahydro-5H-benzo[7]annulen-5-yl)piperazin-1-yl)-N-((4-(((7-(cyclopropylmethyl)-7-azaspiro[3.5]nonan-2-yl)methyl)amino)-3-nitrophenyl)sulfonyl)benzamide]	< 0.05
< 0.02	0.02 to 0.2	CC(=O)N1CCC2(CC1)CC(CNc1ccc(S(=O)(=O)NC(=O)c3ccc(N4CCN([C@@H]5CCCCc6c(Cl)cccc65)CC4)cc3Oc3cnc4[nH]ccc4c3)cc1[N+](=O)[O-])C2 [Compound 111, (R)-2-((1H-pyrrolo[2,3-b]pyridin-5-yl)oxy)-N-((4-(((7-acetyl-7-azaspiro[3.5]nonan-2-yl)methyl)amino)-3-nitrophenyl)sulfonyl)-4-(4-(1-chloro-6,7,8,9-tetrahydro-5H-benzo[7]annulen-5-yl)piperazin-1-yl)benzamide]	< 0.05
< 0.02	0.02 to 0.2	O=C(NS(=O)(=O)c1ccc(NCC2CC3(CCOCC3)C2)c([N+](=O)[O-])c1)c1ccc(N2CCN([C@@H]3CCCCc4c(Cl)cccc43)CC2)cc1Oc1cnc2[nH]ccc2c1 [Compound 99, (R)-2-((1H-pyrrolo[2,3-b]pyridin-5-yl)oxy)-N-((4-(((7-oxaspiro[3.5]nonan-2-yl)methyl)amino)-3-nitrophenyl)sulfonyl)-4-(4-(1-chloro-6,7,8,9-tetrahydro-5H-benzo[7]annulen-5-yl)piperazin-1-yl)benzamide]	< 0.05
